The record followed here is ChEMBL document CHEMBL4359860, “Tacrine-O-protected phenolics heterodimers as multitarget-directed ligands against Alzheimer's disease: Selective subnanomolar BuChE inhibitors” (Eur J Med Chem, 2019).

In data set [1] the target is Cholinesterase (Equus caballus) (UniProt P81908).
Data set [2] deals with Acetylcholinesterase (Homo sapiens, UniProt P22303). Nature of the data set: Inhibition of human recombinant AChE expressed in HEK293 cells using […] as substrate preincubated with enzyme for 20 mins followed by substrate addition and measured after 5 mins by Ellman's method. (In general: In Ellman's method for cholinesterases, released thiocholine reacts with DTNB.)
Chain of Acetylcholinesterase (Homo sapiens, UniProt P22303) (P22303 whole entry): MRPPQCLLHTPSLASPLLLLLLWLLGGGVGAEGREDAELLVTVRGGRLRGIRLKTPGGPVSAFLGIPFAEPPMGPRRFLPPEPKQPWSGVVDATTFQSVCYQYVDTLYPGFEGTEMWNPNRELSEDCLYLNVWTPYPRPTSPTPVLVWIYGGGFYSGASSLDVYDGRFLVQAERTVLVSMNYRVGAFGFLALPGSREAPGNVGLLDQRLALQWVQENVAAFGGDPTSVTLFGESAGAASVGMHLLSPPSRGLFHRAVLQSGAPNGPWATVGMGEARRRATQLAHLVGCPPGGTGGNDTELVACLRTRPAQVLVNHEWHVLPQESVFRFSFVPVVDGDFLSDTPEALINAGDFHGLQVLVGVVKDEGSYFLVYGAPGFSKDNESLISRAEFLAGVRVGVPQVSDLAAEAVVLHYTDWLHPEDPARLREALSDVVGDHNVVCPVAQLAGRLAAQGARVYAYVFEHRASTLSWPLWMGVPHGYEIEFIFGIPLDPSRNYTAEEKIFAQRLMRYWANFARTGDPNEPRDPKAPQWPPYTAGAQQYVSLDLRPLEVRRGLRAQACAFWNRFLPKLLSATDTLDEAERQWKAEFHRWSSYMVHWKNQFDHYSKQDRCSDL

For data set [3], the target named is T1, Cholinesterase (Homo sapiens, UniProt P06276). Nature of the data set: Inhibition of human serum BuChe by Ellman's method.
T1 sequence (P06276 whole entry): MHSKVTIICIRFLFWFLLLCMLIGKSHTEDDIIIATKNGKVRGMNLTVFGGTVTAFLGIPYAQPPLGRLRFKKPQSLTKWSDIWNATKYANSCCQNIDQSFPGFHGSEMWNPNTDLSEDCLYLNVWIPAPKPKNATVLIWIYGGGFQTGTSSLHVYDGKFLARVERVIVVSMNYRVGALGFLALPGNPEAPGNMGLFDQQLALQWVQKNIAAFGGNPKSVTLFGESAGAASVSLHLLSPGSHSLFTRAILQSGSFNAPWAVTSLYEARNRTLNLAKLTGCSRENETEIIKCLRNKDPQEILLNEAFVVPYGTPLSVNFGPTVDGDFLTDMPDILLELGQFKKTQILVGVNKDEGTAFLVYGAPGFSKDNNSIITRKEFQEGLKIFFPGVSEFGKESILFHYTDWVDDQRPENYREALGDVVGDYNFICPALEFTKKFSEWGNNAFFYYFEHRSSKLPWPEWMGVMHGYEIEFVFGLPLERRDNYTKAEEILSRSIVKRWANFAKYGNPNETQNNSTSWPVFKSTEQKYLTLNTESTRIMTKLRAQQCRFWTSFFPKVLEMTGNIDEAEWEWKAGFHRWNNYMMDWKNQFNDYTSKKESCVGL
In data set [4] the target is T2, Acetylcholinesterase (Electrophorus electricus, UniProt O42275).
T2 sequence (O42275 whole entry): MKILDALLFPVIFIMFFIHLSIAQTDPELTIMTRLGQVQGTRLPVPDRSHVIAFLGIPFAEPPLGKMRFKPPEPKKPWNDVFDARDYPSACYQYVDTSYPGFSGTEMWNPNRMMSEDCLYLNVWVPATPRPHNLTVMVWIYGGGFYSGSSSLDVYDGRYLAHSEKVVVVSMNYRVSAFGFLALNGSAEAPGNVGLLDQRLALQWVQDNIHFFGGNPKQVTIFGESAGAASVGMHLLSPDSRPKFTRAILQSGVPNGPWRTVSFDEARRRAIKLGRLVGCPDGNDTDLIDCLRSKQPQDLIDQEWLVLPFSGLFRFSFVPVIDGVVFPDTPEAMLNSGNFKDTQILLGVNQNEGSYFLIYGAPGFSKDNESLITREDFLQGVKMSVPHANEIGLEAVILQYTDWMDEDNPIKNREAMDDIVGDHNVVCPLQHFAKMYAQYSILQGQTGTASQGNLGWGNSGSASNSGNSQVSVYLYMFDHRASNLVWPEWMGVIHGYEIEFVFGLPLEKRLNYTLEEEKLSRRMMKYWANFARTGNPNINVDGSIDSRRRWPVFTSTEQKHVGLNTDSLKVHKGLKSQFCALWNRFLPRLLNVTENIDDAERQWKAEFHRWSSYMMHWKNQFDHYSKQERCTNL
Description: Inhibition of electric eel AChE assessed as dissociation constant for enzyme-inhibitor complex using acetylthiocholine iodide as substrate measured for 125 secs by Ellman's method
Data set [5] has as its target T2, Acetylcholinesterase. The source holds these as a separate data set.
Description: Inhibition of electric eel AChE assessed as dissociation constant for enzyme-substrate-inhibitor complex using acetylthiocholine iodide as substrate measured for 125 secs by Ellman's method
The target in data set [6] is T3, Cholinesterase (Equus caballus, UniProt P81908).
T3 sequence (P81908 whole entry): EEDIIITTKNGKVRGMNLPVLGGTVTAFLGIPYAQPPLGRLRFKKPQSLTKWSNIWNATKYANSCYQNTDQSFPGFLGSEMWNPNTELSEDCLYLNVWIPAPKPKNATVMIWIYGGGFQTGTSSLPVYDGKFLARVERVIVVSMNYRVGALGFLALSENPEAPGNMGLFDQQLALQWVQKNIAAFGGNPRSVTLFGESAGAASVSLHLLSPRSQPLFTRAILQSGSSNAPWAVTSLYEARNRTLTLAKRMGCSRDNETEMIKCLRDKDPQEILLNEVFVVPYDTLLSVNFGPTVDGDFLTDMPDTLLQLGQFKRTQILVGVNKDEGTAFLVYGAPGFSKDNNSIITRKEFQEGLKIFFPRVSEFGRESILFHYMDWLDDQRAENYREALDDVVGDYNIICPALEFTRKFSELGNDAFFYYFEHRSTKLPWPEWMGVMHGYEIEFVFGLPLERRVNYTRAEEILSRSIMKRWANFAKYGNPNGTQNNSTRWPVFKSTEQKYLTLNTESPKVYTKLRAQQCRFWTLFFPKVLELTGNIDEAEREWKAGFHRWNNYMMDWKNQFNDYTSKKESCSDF
Description: Inhibition of equine serum BuChE assessed as dissociation constant for enzyme-substrate-inhibitor complex using butyrylthiocholine iodide as substrate measured for 125 secs by Ellman's method
Data set [7] concerns the target Amyloid-beta precursor protein (Homo sapiens) (UniProt P05067). As to conditions: at 50 µM.
Description: Inhibition of amyloid beta (1 to 42) (unknown origin) self aggregation at 50 uM incubated for 48 hrs by thioflavin-T fluorescence method relative to control
Data set [8] addresses T3, Cholinesterase. This is another data set of the same source.
Description: Inhibition of equine serum BuChE assessed as dissociation constant for enzyme-inhibitor complex using butyrylthiocholine iodide as substrate measured for 125 secs by Ellman's method
In data set [9] the target is Cholinesterase (Equus caballus) (UniProt P81908). This is another data set of the same source.
In data set [10] the test system is HBL-100. Nature of the data set: Antiproliferative activity against human HBL100 cells assessed as growth inhibition after 48 hrs by SRB assay. In kind it is functional. As to conditions: HBL-100, 48 h. Background: Sulforhodamine B stains cellular protein and so reports cell mass.
Data set [11] concerns HeLa. Nature of the data set: Antiproliferative activity against human HeLa cells assessed as growth inhibition after 48 hrs by SRB assay. It counts as functional.
The subject of data set [12] is SW1573. The experiment in a line: Antiproliferative activity against human SW1573 cells assessed as growth inhibition after 48 hrs by SRB assay. In kind it is functional. As to conditions: SW1573, 48 h.
The subject of data set [13] is T47D. The experiment in a line: Antiproliferative activity against human T47D cells assessed as growth inhibition after 48 hrs by SRB assay. In kind it is functional.
The test system of data set [14] is WiDr. Nature of the data set: Antiproliferative activity against human WiDr cells assessed as growth inhibition after 48 hrs by SRB assay. It counts as functional.
In data set [15] the test system is Cerebellar granule neurone. Nature of the data set: Neuroprotective activity against 6-OHDA-induced cytotoxicity in rat primary cerebellar granule neuron at 1 to 25 uM by MTT assay. It counts as functional, cell-based. Background: Tetrazolium assays rely on reduction of a dye to a coloured formazan, in cell work by metabolically active cells.
Data set [16] can be described thus: Cytotoxicity in rat Primary cerebellar granule neuron assessed as cell viability at 1 uM after 24 hrs by MTT assay. It counts as cell-based, Cerebellar granule neurone. Conditions: primary cerebellar granule neurons, read-out: Activity.
Data set [17] relates to HepG2. The experiment in a line: Cytotoxicity against human HepG2 cells at 1 to 25 uM after 24 hrs by MTT assay. It counts as cell-based. Conditions: hepg2, 24 h.
Data set [18] concerns the target T1, Cholinesterase. The experiment in a line: Potency index, ratio of tacrine IC50 to compound IC50 for human serum BuChe by Ellman's method.
Data set [19] has as its system A549. The experiment in a line: Antiproliferative activity against human A549 cells assessed as growth inhibition after 48 hrs by SRB assay. Conditions: A549, 48 h. It counts as functional.
Data set [20] can be described thus: Cytotoxicity against human hTERT-BJ cells assessed as growth inhibition after 48 hrs by SRB assay. It counts as cell-based.
The subject of data set [21] is T47D. Nature of the data set: Potency index, ratio of 5-FU GI50 to compound GI50 for human T47D cells after 48 hrs by SRB assay. It counts as functional.
Data set [22] deals with WiDr. Nature of the data set: Potency index, ratio of 5-FU GI50 to compound GI50 for human WiDr cells after 48 hrs by SRB assay. It counts as functional.
Data set [23] can be described thus: Selectivity index, ratio of GI50 for human hTERT-BJ cells to GI50 for human T47D cells after 48 hrs by SRB assay. As to conditions: hTERT-BJ cells and T47D cells, read-out: RatioGI50. It counts as toxicity.
The nature of data set [24]: Selectivity index, ratio of GI50 for human hTERT-BJ cells to GI50 for human WiDr cells after 48 hrs by SRB assay. In kind it is toxicity. As to conditions: hTERT-BJ cells and WiDr cells, read-out: RatioGI50.

The source made the active and inactive calls. No cut-off for these calls is given here. A value given as a limit tells only on which side of the number the result lay.

Chain of Amyloid-beta precursor protein (Homo sapiens) (P05067 whole entry): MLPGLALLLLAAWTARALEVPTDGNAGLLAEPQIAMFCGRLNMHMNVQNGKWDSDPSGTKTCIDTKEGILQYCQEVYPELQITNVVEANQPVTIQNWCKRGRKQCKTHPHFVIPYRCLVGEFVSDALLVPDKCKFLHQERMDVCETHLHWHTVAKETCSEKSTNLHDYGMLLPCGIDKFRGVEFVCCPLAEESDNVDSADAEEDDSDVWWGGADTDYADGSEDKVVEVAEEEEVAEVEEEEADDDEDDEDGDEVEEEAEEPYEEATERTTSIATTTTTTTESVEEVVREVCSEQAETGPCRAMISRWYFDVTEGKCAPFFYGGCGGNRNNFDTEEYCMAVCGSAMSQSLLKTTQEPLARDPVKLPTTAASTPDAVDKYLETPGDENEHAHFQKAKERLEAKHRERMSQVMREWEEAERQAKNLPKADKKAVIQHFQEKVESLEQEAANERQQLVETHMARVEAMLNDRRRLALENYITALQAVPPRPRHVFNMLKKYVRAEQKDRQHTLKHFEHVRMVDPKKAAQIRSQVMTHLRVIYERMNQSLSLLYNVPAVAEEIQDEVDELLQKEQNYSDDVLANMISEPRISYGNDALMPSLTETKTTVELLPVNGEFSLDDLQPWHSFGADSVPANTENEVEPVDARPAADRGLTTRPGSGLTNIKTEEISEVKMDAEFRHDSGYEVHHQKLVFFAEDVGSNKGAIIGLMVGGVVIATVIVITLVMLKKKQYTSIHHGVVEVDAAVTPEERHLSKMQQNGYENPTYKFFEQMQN
Chain of Cholinesterase (Equus caballus) (P81908 whole entry): as the sequence (P81908 whole entry) above

In the case of `Oc1ccc(CCOCCCCCNc2c3c(nc4ccccc24)CCCC3)cc1`, the inhibition (as a rule, the change of the read-out against control, counted positive when it falls) in data set [1] is “Active”. Further, the IC50 (as a rule, the concentration that gives 50% inhibition) in data set [2] was 142 nM; in data set [3], 6.06 nM. Also, the Ki (commonly a measure of affinity in units of concentration, obtained from inhibition or displacement) turned out to be 140 nM in data set [4], 100 nM in data set [5] and 4.5 nM in [6]. In data set [7], this compound gave an inhibition of 54.4%.
As for `c1ccc(COc2ccc(CCNc3c4c(nc5ccccc35)CCCC4)cc2OCc2ccccc2)cc1`, the Ki in [4] amounted to 1600 nM; in data set [5], 610 nM; in data set [8], 22 nM; in [6] it was 1.1 nM.
Turning to `c1ccc(COc2ccc(CCNc3c4c(nc5ccccc35)CCCC4)cc2)cc1`, the Ki in data set [4] amounted to 1600 nM; in data set [5], 610 nM; in [8], 22 nM; in data set [6], 1.1 nM.
As for `Oc1ccc(/C=N/c2c3c(nc4ccccc24)CCCC3)cc1O`, the IC50 in [2] is 609 nM; in [3] it was 41.5 nM. Moreover, the inhibition constant (Ki) in [4] worked out at 2100 nM; in data set [5], 820 nM; in data set [8], 11 nM; in data set [6], 1.9 nM.
With `Oc1ccc(CNCCCCCCNc2c3c(nc4ccccc24)CCCC3)cc1O`, the IC50 in [2] came to 29 nM; in [3], 22.9 nM. Also, the Ki is 120 nM in data set [4], 58 nM in [5], 7.9 nM in data set [8] and 1.7 nM in [6].
Consider `COc1ccc(CNc2c3c(nc4ccccc24)CCCC3)cc1OC`, for which the Ki amounted to 640 nM in data set [4], 210 nM in data set [5], 31 nM in data set [8] and 6.4 nM in [6].
As to `COc1ccc(CCOCCCCCNc2c3c(nc4ccccc24)CCCC3)cc1`, the IC50 was 216 nM in data set [2] and 2.92 nM in data set [3]. Also, the inhibitory constant (Ki) in data set [4] is 75 nM; in data set [5], 75 nM; in data set [8], 29 nM; in data set [6] it was 2.9 nM. This compound also gave an inhibition in data set [7] of 63.5%.
As to `Oc1ccc(CNc2c3c(nc4ccccc24)CCCC3)cc1O`, the half-maximal inhibitory concentration (IC50) in data set [2] turned out to be 100 nM; in data set [3] it was 74.8 nM. Moreover, the Ki is 190 nM in data set [4], 190 nM in [5], 25 nM in data set [8] and 3.2 nM in data set [6].
With `Oc1ccc(CCOCCCCCNc2c3c(nc4ccccc24)CCCC3)cc1O`, the inhibition result in data set [9] is “Active”. The IC50 came out at 542 nM in data set [2] and 35.6 nM in data set [3]. For the same compound, the inhibition constant (Ki) in data set [4] stood at 210 nM; in [5] it was 77 nM; in data set [8] it was 43 nM; in data set [6], 9 nM.
With `Oc1cc(/C=N/c2c3c(nc4ccccc24)CCCC3)cc(O)c1O`, the values for the half-inhibitory concentration (IC50) in [2] and in data set [3] were 1040 nM and 120 nM, respectively. Moreover, the Ki was 400 nM in data set [4], 170 nM in [5], 51 nM in [8] and 5.8 nM in data set [6].
For the compound `O=c1[nH]cc(F)c(=O)[nH]1` [FLUOROURACIL], the GI50 (in general, the concentration giving 50% growth inhibition) amounted to 5500 nM in [10]; 15000 nM in [11]; 4300 nM in data set [12]; 47000 nM in [13]; 49000 nM in data set [14].
Turning to `C(=N\c1c2c(nc3ccccc13)CCCC2)/c1ccc(OCc2ccccc2)c(OCc2ccccc2)c1`, the Ki in data set [4] came out at 24000 nM; in data set [5] it was 20000 nM; in data set [8], 637 nM; in data set [6], 173 nM.
With `c1ccc(COc2ccc(CCOCCCCCNc3c4c(nc5ccccc35)CCCC4)cc2OCc2ccccc2)cc1`, the IC50 in data set [2] is 506 nM; in data set [3], 0.497 nM. Also, the result in data set [15] was inactive. The viability at 24 h, 1 µM in data set [16] was found to be 50%. Besides, the Activity result in [17] is “Toxic”. For the same compound, the Ratio IC50 in [18] came to 85. Also, the inhibitory constant (Ki) in data set [4] amounted to 340 nM; in data set [5], 130 nM; in data set [8] it was 4.6 nM; in [6], 2.7 nM. Moreover, the inhibition in data set [7] stood at 75.3%.
In the case of `Oc1ccc(CCNc2c3c(nc4ccccc24)CCCC3)cc1O`, the inhibition constant (Ki) in [4] turned out to be 870 nM; in data set [5], 590 nM; in [8], 128 nM; in data set [6] it was 28 nM.
For `COc1ccc(/C=N/c2c3c(nc4ccccc24)CCCC3)cc1OC`, the inhibition entry in [9] is “Active”. Further, the GI50 in data set [19] worked out at 34000 nM; in data set [10] it was 43000 nM; in [11], 43000 nM; in data set [12], 39000 nM; in data set [13], 35000 nM; in data set [14], 31000 nM. Moreover, the GI50 at 48 h in [20] was 16000 nM. Further, the inhibition constant Ki in data set [4] is 2500 nM; in data set [5], 1900 nM; in data set [8] it was 271 nM; in [6] it was 35 nM.
With `BrCCCCCOCCc1ccc(OCc2ccccc2)cc1`, the concentration for 50% growth inhibition (GI50) in [19] is 93000 nM; in [10], above 100000 nM; in [11] it was above 100000 nM; in [12], above 100000 nM; in data set [13], 92000 nM; in [14], above 100000 nM.
For the compound `C(=N\c1c2c(nc3ccccc13)CCCC2)/c1cc(OCc2ccccc2)c(OCc2ccccc2)c(OCc2ccccc2)c1`, the Ki in data set [4] came out at 2300 nM; in data set [5], 3000 nM; in data set [8], 704 nM; in data set [6] it was 192 nM.
For `Oc1ccc(/C=N/c2c3c(nc4ccccc24)CCCC3)cc1`, the inhibition result in [1] is “Active”. The half-maximal inhibitory concentration (IC50) in data set [2] came to 1470 nM; in data set [3], 194 nM. For the same compound, the Ki in data set [4] is 3000 nM; in data set [5], 1800 nM; in [6] it was 17 nM.
Take `c1ccc2c(N3CCCC3)c3c(nc2c1)CCCC3`: the GI50 turned out to be 24000 nM in data set [19]; 27000 nM in data set [10]; 18000 nM in data set [11]; 26000 nM in data set [12]; 18000 nM in data set [13]; 21000 nM in [14]. The GI50 at 48 h in [20] was 50000 nM. For the same compound, the Ki in [4] was found to be 3200 nM; in data set [8], 1200 nM; in data set [6], 304 nM.
`C(=N\c1c2c(nc3ccccc13)CCCC2)/c1ccc(OCc2ccccc2)cc1`: the Ki in data set [4] came to 39000 nM; in data set [5], 23000 nM; in data set [8], 2920 nM; in data set [6] it was 643 nM.
Turning to `c1ccc2c(N3CCCCC3)c3c(nc2c1)CCCC3`, the GI50 in data set [19] is 11000 nM; in data set [10] it was 19000 nM; in data set [11], 13000 nM; in [12] it was 13000 nM; in [13] it was 5200 nM; in [14], 4500 nM. For the same compound, in data set [20], the concentration for 50% growth inhibition (GI50) at 48 h was 25000 nM. Further, the RatioGI50 in data set [21] and in data set [22] was 10 in each case. Moreover, the selectivity ratio at 48 h in data set [23] and in data set [24] was 5 in each case. For the same compound, the inhibition constant (Ki) in [4] is 1800 nM; in [5] it was 2500 nM; in [8], 1900 nM; in data set [6], 275 nM.
On to `c1ccc(COc2ccc(CCOCCCCCNc3c4c(nc5ccccc35)CCCC4)cc2)cc1`, for which the IC50 in [2] is 454 nM; in data set [3], 6.95 nM. The inhibition constant Ki was determined as 110 nM in data set [4], 110 nM in data set [5], 1.9 nM in [8] and 1.5 nM in [6]. In data set [7], the inhibition stood at 70%.
As to `COc1ccc(CNCCCCCNc2c3c(nc4ccccc24)CCCC3)cc1OC`, the Ki is 160 nM in data set [4], 120 nM in data set [5], 30 nM in [8] and 9.9 nM in data set [6].
Take `Oc1ccc(CNc2c3c(nc4ccccc24)CCCC3)cc1`: the inhibition result in data set [9] is “Active”. For the same compound, the inhibitory constant (Ki) was 370 nM in data set [4], 81 nM in data set [5], 12 nM in data set [8] and 3.2 nM in data set [6].
For `Oc1ccc(CCNc2c3c(nc4ccccc24)CCCC3)cc1`, the inhibition entry in data set [1] is “Active”. The results for the Ki in data set [4], in data set [5] and in data set [8] were 110 nM, 32 nM and 184 nM, respectively.
